Measured values from patent publication US20260083698A1, “Synergistic Stimulation of Mucociliary Clearance to Treat Mucus Obstruction in Cystic Fibrosis and Other Muco-Obstructive Disorders” (The Board of Trustees of the Leland Stanford Junior …, priority 2022, published 2026).

How the values were obtained:
[1] = tested on: WT piglet tracheas; test: Mucociliary clearance velocity (MCCV) in ex vivo WT piglet tracheas; parameters: species or system pig; settings: for Averaged MCCV: 10 μM forskolin, 0.3 μM carbachol, last 20 min of single agonist period, last 50 min of synergy period
Procedure: MCCV in tracheas was measured from 2 to 5 days old WT piglets (see “Methods” section for details). […] The 8 piglet tracheas were divided into two groups and tested 4 by applying forskolin first and 4 by applying carbachol first, followed by the combined agonists.
These experiments used forskolin to elevate cAMP.
Pig tissues. Newborn WT piglet tracheas (2-5 days old) were directly obtained at the swine facility of UC Davis or from the laboratory of David Stoltz, University of Iowa, via overnight priority express. Postmortem (<1 h) tracheas from young adult Yorkshire pigs (30-50 kg) and 5-12 months old M. putorius ferrets were from animal facilities at Stanford and Gilroy/CA. All methods using animal tracheae were carried out in accordance with relevant guidelines and regulations of Stanford University and animal protocols were approved (Stanford IACUC protocol#: 10,048). Piglet tracheas were shipped in DMEM cell culture medium, other animal tissues were transported to the laboratory in cold PhysioSol™ solution (Hospira, IL/USA) and then transferred to icecold Krebs Ringer bicarbonate (KRB) buffer gassed with 95% O2 and 5% CO2 and kept at 4° C. until use. The KRB buffer contained (in mM): 115 NaCl, 25 NaHCO3, 2.4 K2HPO4, 0.4 KH2PO4, 1.2 MgCl2, 1.2 CaCl2, 10 glucose, and 1.0 μM indomethacin, adjusted to pH 7.2 and ˜290 mOsm at room temperature.
MCCV measurement. Details are in the previous reports (16,59,60). Briefly, each whole length ferret or piglet trachea, or a CF tracheal trim, was cut open along the mid-dorsal line and mounted mucosal side up onto a Sylgard elastomer platform. […] The prepared trachea was placed into a sealed, humidified chamber bubbled continuously with gas (95%/5%-O2/CO2) with the serosal surface bathed with KRB buffer±drugs. […] Then excess apical solution was drained, and tissue was incubated for an additional 10 min before starting baseline measurements of MCCV. Drugs were added by bath replacement with pre-warmed bath+drug(s). Summary MCCV data are reported as a single number and based on the averaged MCCV during the last 20 min of the treatment period unless stated otherwise.
MCCV (all values are in mm/min) was then measured for 90-120 min and plotted as MCCV vs time and agonist(s) in FIG. 8.
It was hypothesized that the synergistic MCC induced by β-adrenergic and cholinergic agonists involved ENaC inhibition.

[2] = tested on: human nasal mucosa; test: Ciliary beat frequency (CBF) measurement; settings: 37° C.; for CBF: human nasal mucosa, KRB, 0.3 μM carbachol, 10 μM forskolin
Procedure: Ciliary beat frequency was measured in human nasal mucosa from 4 subjects. CBF (in Hz) of unstimulated tissues at 37° C. in Krebs buffer (KRB) was 10.46±0.95. […] (Note that in this experiment any effects on ASL by the agonists were diluted because the ciliated tissue was studied while submerged in Krebs solution.) […] It was tested to see if CBF might display synergistic increases to the combined agonists. CBF (in Hz) of unstimulated human nasal cells in KRB (Krebs buffer solution) was 6.79±1.69 at 25° C. and 10.46±0.95 at 37° C. (4 subjects, P=0.01) (see “Methods” section). […] Thus, while increases in CBF will contribute to increases in MCCV, they are unlikely to account for the synergistic increase in MCCV seen with the combined agonists (see “Discussion” section). Human tissues. Human nasal mucosal tissues were obtained from nasal biopsies during endoscopic sinus surgeries at Yonsei University Hospital. All methods using human tissues were carried out in accordance with relevant guidelines and regulations of Yonsei University, Seoul, South Korea. All experimental protocols were approved by Yonsei University and informed consent was obtained from all participants prior to the study (Yonsei University-IRB protocol#: 4-2016-1153). Ciliary beat frequency measurement. Ciliary beat frequency was measured using human nasal mucosa in the lab where ferret and pig tracheal mucosa was not readily accessible. Human nasal mucosa from endoscopic nasal biopsies was further dissected under a microscope and placed in a chamber controlled for temperature and pH control. Perfused Krebs bicarbonate buffer was maintained at 37° C. and pH 7.4. Cilia were visualized with a Zeiss microscope equipped with 40× or 60× objectives (Munich, Germany) using differential interference contrast (DIC) optics. […] Images were obtained for 10 s at each condition and experiments were performed in the following sequence: (1) unstimulated CBF at room temperature; (2) unstimulated at 37° C.; (3) CBF at 37° C. with 0.3 μM carbachol; (4) wash for 10 min; […] Each condition was maintained for at least 10 min. […] All recordings at each condition were made at three different areas of the epithelia, and the analyzed CBF was averaged for each experiment. To analyze captured images and calculate CBF, an in-house coding with a MATLAB software (MA, USA) was used.

[3] = tested on: CF ferret (CFTRKO/KO) tracheal glands; test: Optical measurement of glandular mucus secretion rate, CF ferret; settings: 10 mM forskolin, 0.3 mM carbachol, one ferret per order of addition
Text: Synergistic glandular mucus secretion in WT pigs, WT ferrets, and CF ferrets. Synergistic increases in MCCV rely partly on increased mucus secretion from submucosal glands. This hypothesis arises from evidence that combinations of [Ca^2+]i-elevating and [cAMP]i-elevating agonists produce synergistically elevated rates of mucus from submucosal glands of humans (22), pigs (24), and ferrets (21). However, in those experiments different specific concentrations of agonists were used. To determine if the same protocols used here produced synergistic increases in secretion from submucosal glands, mucus secretion rates of individual tracheal glands in WT pigs and ferrets and in CF ferrets were measured via time-lapse optical imaging (28) while stimulating them with the same concentrations of agonists and durations of exposure used for MCCV studies. All secretion rates are reported as nanoliters/min/gland. […] Only two CF ferrets were able to be tested (FIG. 3G-I). […] Unstimulated secretion rates were zero, as in WT ferrets. […] The averaged secretion rate across both ferrets to the combined agonists was 1.27±0.15,which is 2.8 times the arithmetic sum of the two agonists used alone, and about half of the response of WT ferrets of 2.46±0.39 (16). Airway tissue procurement. […] Stored images were analyzed by direct measurement or with ImageJ software (V. 1.50i, https://imagej.nih.gov/ij/, NIH, MD/USA).

SMILES	Averaged MCCV ([1]; WT piglet tracheas) [mm/min]	increase in CBF vs unstimulated [2] [%]	CBF [2] [Hz]	average gland mucus secretion rate, single ferret [3] [nanoliters/min/gland]	effect on MCCV ([1]; WT piglet tracheas, carbachol or forskolin alone)	MCCV ([1]; pig tracheas, 10 μM formoterol in place of forskolin, carbachol) [mm/min]
C=C[C@@]1(C)CC(=O)[C@]2(O)[C@@]3(C)[C@@H](O)CCC(C)(C)[C@@H]3[C@H](O)[C@H](OC(C)=O)[C@@]2(C)O1 [forskolin]	2.46±0.68	9.8	12.06±1.22	0.01		
C[N+](C)(C)CCOC(N)=O [carbachol]	1.12±0.82	5.3	11.04±1.3	0.45±0.16	only small increases	1.3±0.8
